Test results: publication PMC12480555 (Scientific Reports, 2025)

Key:
[1] = Blood parameters in colon cancer model
CT26-induced tumors [2] = experiment: Colon cancer model, tumor weight and size after 21 days; conditions: intravenous every three days
MTT cytotoxicity assay = format: cell-based; conditions: human, HFF cells
CT26-induced tumors [3] = experiment: Tumor histology; conditions: tumor tissue, day 21
[4] = Kidney histology in colon cancer model; conditions: kidney tissue, day 21

SMILES: O=c1[nH]cc(F)c(=O)[nH]1 [Free 5FU, 5-Fluorouracil]
- Red Blood Cell Count ± SD ([1]; Day 21): 4.2 ± 0.3 ×10⁶ cells/µL
- White Blood Cell Count ± SD ([1]; Day 21): 10.0 ± 1.5 ×10³ cells/µL
- Hemoglobin Level ± SD ([1]; Day 21, listed as 5-FU): 9.0 ± 0.8 g/dL
- Hemoglobin Level ± SD ([1]; Day 21, listed as free 5-FU): 9.0 g/dL
- Hemoglobin Level ± SD ([1]; Treatment start): 12.8 ± 1.2 g/dL
- Red Blood Cell Count ± SD ([1]; Treatment start): 5.6 ± 0.5 ×10⁶ cells/µL
- White Blood Cell Count ± SD ([1]; Treatment start): 8.3 ± 1.1 ×10³ cells/µL
- Mean tumor size ± standard deviation (CT26-induced tumors [2]): 11.0 ± 2.0 mm
- Mean tumor weight ± standard deviation (CT26-induced tumors [2]): 0.98 ± 0.36 g
- viability at 24 h, 0.2 mg/mL (MTT cytotoxicity assay): 99.5%
- viability at 24 h, 0.5 mg/mL (MTT cytotoxicity assay): 87.9%
- viability at 24 h, 1 mg/mL (MTT cytotoxicity assay): 85.9%
- viability at 24 h, 1.5 mg/mL (MTT cytotoxicity assay): 75.9%
- viability at 24 h, 2 mg/mL (MTT cytotoxicity assay): 75.1%
- viability at 48 h, 0.2 mg/mL (MTT cytotoxicity assay): 104%
- viability at 48 h, 0.5 mg/mL (MTT cytotoxicity assay): 94.1%
- viability at 48 h, 1 mg/mL (MTT cytotoxicity assay): 79.4%
- viability at 48 h, 1.5 mg/mL (MTT cytotoxicity assay): 74.7%
- viability at 48 h, 2 mg/mL (MTT cytotoxicity assay): 65.1%
- Number of Apoptotic Cells (per field of view) ± Standard Deviation (CT26-induced tumors [3]): 8.0 ± 1.0 per field of view
- Other Histopathology Changes (CT26-induced tumors [3]): Mild necrotic changes and inflammation
- Percentage of Necrosis ± Standard Deviation (CT26-induced tumors [3]): 18.0 ± 4.0%
- Tumor Differentiation Grade (1 to 3) ± Standard Deviation (CT26-induced tumors [3]): 2.0 ± 0.3
- renal complications (kidney histology) [4]: Most renal complications occurred in this group
